The series in a line: Product appearance (compatibility with the quaternized silicone polymer and/or solvent thereof): silicone particle size observed by microscope. It counts as physicochemical. Particulars: preservative used together with quaternized silicone polymer and its solvent. On the procedure: Product Appearance (Compatibility with the Quaternized Silicone Polymer and/or Solvent Thereof)
Product appearance is evaluated as follows, by silicone particle size in compositions which was observed using micro scope.
Pass: Average silicone particle size is 200 μm or less
Fail: Average silicone particle size is above 200 μm (excluding 200 μm)

The values below come from patent US20110135588A1, “Hair Conditioning Composition Comprising Quaternized Silicone Polymer, Silicone Copolymer, and Carbamate” (priority 2009, published 2011).

As to `C/C=C/C=C/C(=O)[O-].[K+]` [potassium sorbate], the “Agglomeration of quaternized silicone polymer (product appearance)” value is on record as “form agglomerates”. Then `O=C(O)c1ccccc1O` [salicylic acid], with “form agglomerates”.
